According to patent US9167822B2, “Antifungal compositions” (DSM IP ASSETS B.V., priority 2012, dated 2015):
Values joined by “and” are separate entries in the source; they are usually repeats but may differ in a detail not shown here. Equal entries are not always repeated.

How the values were obtained:
Botrytis cinerea [1] = assay: Treatment of strawberries: wounded, inoculated with Botrytis cinerea, then dipped in antifungal composition; assay type: in vivo
Protocol: (§1) Ten fresh, organic strawberries were used per treatment. Each strawberry was wounded with a 0.5 mm long cut and each wound was inoculated with 10 μl of a Botrytis cinerea suspension containing 1×10^5 of spores/ml. […] The pH of the compositions was 4. A composition without natamycin or bixafen was used as control. The treated strawberries were incubated in a closed box in the dark at 20° C.
(§2) During incubation, mould growth on the strawberries was assessed in a twofold manner: (i) the number of moulded strawberries per total of 10 strawberries was counted; and (ii) the antifungal activity (in %) of the individual and combined active ingredients was determined by calculating the reduction in mould growth observed on the strawberries treated with the antifungal composition in comparison to the mould growth on the strawberries treated with the control composition. The expected antifungal activity (E in %) of the combined antifungal composition comprising both active ingredients was calculated according to the Colby equation (Colby, 1967): E=X+Y−[(X·Y)/100] wherein X and Y are the observed antifungal activities (in %) of the individual active ingredients X and Y, respectively. If the observed antifungal activity (O in %) of the combination exceeds the expected antifungal activity (E in %) of the combination and the synergy factor O/E is thus >1.0, the combined application of the active ingredients leads to a synergistic antifungal effect.
The treated strawberries were assessed on mould growth. The antifungal activity (in %) of the individual and combined active ingredients was determined according to the method described in Example 3. […]

Botrytis cinerea [2] = assay: Treatment of strawberries: wounded, dipped in antifungal composition, then inoculated with Botrytis cinerea; assay type: in vivo; settings: 1000 ppm bixafen or both
Protocol: as §1, §2
After treatment, each strawberry was inoculated with 10 μl of a Botrytis cinerea suspension containing 1×10^5 of spores/ml. The treated strawberries were assessed on mould growth according to the two methods described in Example 3.

Penicillium italicum [3] = assay: Treatment of apples wounded and inoculated with Penicillium italicum, then dipped; assay type: in vivo; settings: for Number of moulded apples/total number of 10 apples: 500 ppm natamycin; for Number of moulded apples per total of 10 apples: 250 ppm natamycin
Protocol: Ten fresh, organic apples were used per treatment. Each apple was wounded once using a cork borer according to the method described by de Lapeyre de Bellaire and Dubois (1987). Subsequently, each wound was inoculated with 10 μl of a Penicillium italicum suspension containing 1×10^6 of spores/ml. […] The pH of the compositions was 4. A composition without natamycin or bixafen was used as control. The treated apples were incubated in a closed box in the dark at 20° C. […]
During incubation, the treated apples were assessed on mould growth according to the two methods described in Example 3. […]

Penicillium italicum [4] = assay: In vitro antifungal activity, 96-well microtiter plates; assay type: cell-based; settings: 25° C., day 10, 1.25 ppm natamycin, 25 ppm bixafen or both
Protocol: Subsequently, 100 μl of a Botrytis cinerea suspension prepared in PCB medium was used to inoculated each well with 2.5×10^3 spores/ml.
After incubation of the microtiter plates at 25° C., the in vitro antifungal activity (%) of the individual active ingredients was assessed by calculating the reduction in mould growth observed in the presence of the active ingredient in comparison to the mould growth observed in the absence of the active ingredient. The expected antifungal activity (E in %) of the active ingredient combination was calculated according to the Colby equation (Colby, 1967): E=X+Y−[(X·Y)/100] wherein X and Y are the observed antifungal activities (in %) of the individual active ingredients X and Y, respectively. If the observed antifungal activity (O in %) of the combination exceeds the expected antifungal activity (E in %) of the combination and the resulting synergy factor O/E is thus >1.0, the combined application of the active ingredients leads to a synergistic antifungal effect.
Furthermore, Penicillium italicum was used for inoculation.

Penicillium italicum [5] = assay: Treatment of mandarins wounded and inoculated with Penicillium italicum, then dipped; assay type: in vivo
Protocol: Ten fresh, organic mandarins were used per treatment. The peel of each mandarin was wounded once using a cork borer according to the method described by de Lapeyre de Bellaire and Dubois (1987). Subsequently, each wound was inoculated with 10 μl of a Penicillium italicum suspension containing 1×10^5 of spores/ml. […] The pH of the compositions was 4.
The treated mandarins were incubated in a closed box in the dark at 20° C. and assessed on mould growth during incubation.

[6] = day 3, 500 ppm natamycin, 2000 ppm bixafen or both
[7] = day 4, 250 ppm natamycin, 250 ppm bixafen or both
[8] = day 4, 250 ppm natamycin, 500 ppm bixafen or both
[9] = day 4, 500 ppm natamycin, 2000 ppm bixafen or both
[10] = day 6, 250 ppm natamycin, 250 ppm bixafen or both
[11] = day 6, 250 ppm natamycin, 500 ppm bixafen or both
[12] = day 6, 500 ppm natamycin, 2000 ppm bixafen or both
[13] = day 7, 250 ppm natamycin, 250 ppm bixafen or both
[14] = day 7, 250 ppm natamycin, 500 ppm bixafen or both
[15] = day 9, 250 ppm natamycin, 500 ppm bixafen or both
[16] = day 9, 500 ppm natamycin, 2000 ppm bixafen or both
[17] = day 6, 500 ppm natamycin, 1000 ppm bixafen or both
[18] = day 9, 500 ppm natamycin, 1000 ppm bixafen or both
[19] = day 11, 500 ppm natamycin, 2000 ppm bixafen or both
[20] = day 14, 500 ppm natamycin, 1000 ppm bixafen or both
[21] = day 14, 500 ppm natamycin, 2000 ppm bixafen or both

Cn1cc(C(=O)Nc2ccc(F)cc2-c2ccc(Cl)c(Cl)c2)c(C(F)F)n1 [Bixafen, bixafen]
Number of moulded strawberries/total number of 10 strawberries (Botrytis cinerea [1]; Day 3, 20° C., 250 ppm natamycin, 250 ppm bixafen or both): 9 and 9/10
Number of moulded strawberries/total number of 10 strawberries (Botrytis cinerea [1]; Day 3, 20° C., 500 ppm natamycin, 2000 ppm bixafen or both): 8 and 8/10
Number of moulded strawberries/total number of 10 strawberries (Botrytis cinerea [1]; Day 4, 20° C., 250 ppm natamycin, 250 ppm bixafen or both): 9 and 9/10
Number of moulded strawberries/total number of 10 strawberries (Botrytis cinerea [1]; Day 4, 20° C., 500 ppm natamycin, 2000 ppm bixafen or both): 9 and 9/10
Number of moulded strawberries/total number of 10 strawberries (Botrytis cinerea [1]; Day 5, 20° C., 250 ppm natamycin, 250 ppm bixafen or both): 10 and 10/10
Number of moulded strawberries/total number of 10 strawberries (Botrytis cinerea [1]; Day 5-6, 20° C., 500 ppm natamycin, 2000 ppm bixafen or both): 10 and 10/10
Observed antifungal activity O (%) (Botrytis cinerea [1]; [6]): 62%
Observed antifungal activity O (%) (Botrytis cinerea [1]; [7]): 47%
Observed antifungal activity O (%) (Botrytis cinerea [1]; [8]): 65%
Observed antifungal activity O (%) (Botrytis cinerea [1]; [9]): 55%
Observed antifungal activity O (%) (Botrytis cinerea [1]; day 5, 250 ppm natamycin, 250 ppm bixafen or both): 33%
Observed antifungal activity O (%) (Botrytis cinerea [1]; day 5, 500 ppm natamycin, 2000 ppm bixafen or both): 34%
Observed antifungal activity O (%) (Botrytis cinerea [1]; [10]): 23%
Observed antifungal activity O (%) (Botrytis cinerea [1]; [11]): 33%
Observed antifungal activity O (%) (Botrytis cinerea [1]; [12]): 27%
Observed antifungal activity O (%) (Botrytis cinerea [1]; [13]): 10%
Observed antifungal activity O (%) (Botrytis cinerea [1]; [14]): 12%
Observed antifungal activity O (%) (Botrytis cinerea [1]; day 7, 500 ppm natamycin, 2000 ppm bixafen or both): 12%
Observed antifungal activity O (%) (Botrytis cinerea [1]; [15]): 5%
Observed antifungal activity O (%) (Botrytis cinerea [1]; [16]): 3%
Observed antifungal activity O (%) (Botrytis cinerea [1]; day 10, 250 ppm natamycin, 500 ppm bixafen or both): 0%
Observed antifungal activity O (%) (Botrytis cinerea [2]; day 3, 500 ppm natamycin): 72%
Number of moulded wounds/total number of 10 wounds (Botrytis cinerea [2]; day 5, 20° C., 250 ppm natamycin): 8 and 8/10
Observed antifungal activity O (%) (Botrytis cinerea [2]; day 5, 500 ppm natamycin): 55%
Observed antifungal activity O (%) (Botrytis cinerea [2]; day 6, 500 ppm natamycin): 35%
Number of moulded apples/total number of 10 apples (Penicillium italicum [3]; Day 3, 20° C., 1000 ppm bixafen or both): 6 and 6/10
Number of moulded apples/total number of 10 apples (Penicillium italicum [3]; Day 3-4, 20° C., 2000 ppm bixafen or both): 5/10
Number of moulded apples/total number of 10 apples (Penicillium italicum [3]; Day 4, 20° C., 1000 ppm bixafen or both): 6 and 6/10
Number of moulded apples per total of 10 apples (Penicillium italicum [3]; Day 6, 20° C., 500 ppm bixafen or both): 10 and 10/10
Number of moulded apples/total number of 10 apples (Penicillium italicum [3]; Day 6, 20° C., 1000 ppm bixafen or both): 8 and 8/10
Number of moulded apples/total number of 10 apples (Penicillium italicum [3]; Day 6, 20° C., 2000 ppm bixafen or both): 8 and 8/10
Number of moulded apples per total of 10 apples (Penicillium italicum [3]; Day 6-9, 20° C., 250 ppm bixafen or both): all and 10/10
Number of moulded apples per total of 10 apples (Penicillium italicum [3]; Day 7, 20° C., 500 ppm bixafen or both): 10 and 10/10
Number of moulded apples/total number of 10 apples (Penicillium italicum [3]; Day 7, 20° C., 1000 ppm bixafen or both): 9 and 9/10
Number of moulded apples/total number of 10 apples (Penicillium italicum [3]; Day 7, 20° C., 2000 ppm bixafen or both): 8 and 8/10
Number of moulded apples per total of 10 apples (Penicillium italicum [3]; Day 9, 20° C., 500 ppm bixafen or both): 10 and 10/10
Number of moulded apples/total number of 10 apples (Penicillium italicum [3]; Day 9-14, 20° C., 1000 ppm bixafen or both): all and 10/10
Number of moulded apples/total number of 10 apples (Penicillium italicum [3]; Day 9-14, 20° C., 2000 ppm bixafen or both): all and 10/10
Number of moulded apples per total of 10 apples (Penicillium italicum [3]; Day 11-15, 20° C., 250 ppm bixafen or both): all and 10/10
Observed antifungal activity O (%) (Penicillium italicum [3]; day 3, 500 ppm natamycin, 1000 ppm bixafen or both): 47%
Observed antifungal activity O (%) (Penicillium italicum [3]; [6]): 60%
Observed antifungal activity O (%) (Penicillium italicum [3]; day 6, 250 ppm natamycin, 250 ppm bixafen or both (bixafen 500 ppm)): 17%
Observed antifungal activity O (%) (Penicillium italicum [3]; [11]): 33%
Observed antifungal activity O (%) (Penicillium italicum [3]; [17]): 44%
Observed antifungal activity O (%) (Penicillium italicum [3]; [12]): 39%
Observed antifungal activity O (%) (Penicillium italicum [3]; [14]): 39%
Observed antifungal activity O (%) (Penicillium italicum [3]; day 9, 250 ppm natamycin, 250 ppm bixafen or both (bixafen 500 ppm)): 13%
Observed antifungal activity O (%) (Penicillium italicum [3]; [15]): 17%
Observed antifungal activity O (%) (Penicillium italicum [3]; [18]): 38%
Observed antifungal activity O (%) (Penicillium italicum [3]; [16]): 29%
Observed antifungal activity O (%) (Penicillium italicum [3]; day 11, 250 ppm natamycin, 250 ppm bixafen or both (bixafen 500 ppm)): 0%
Observed antifungal activity O (%) (Penicillium italicum [3]; day 11, 500 ppm natamycin, 1000 ppm bixafen or both): 30%
Observed antifungal activity O (%) (Penicillium italicum [3]; [19]): 30%
Observed antifungal activity O (%) (Penicillium italicum [3]; day 14, 250 ppm natamycin, 250 ppm bixafen or both (bixafen 500 ppm)): 6%
Observed antifungal activity O (%) (Penicillium italicum [3]; [20]): 21%
Observed antifungal activity O (%) (Penicillium italicum [3]; [21]): 36%
Observed antifungal activity O (%) (Penicillium italicum [4]): 50%
Observed antifungal activity O (%) (Penicillium italicum [5]; day 3, 250 ppm natamycin, 250 ppm bixafen or both): 65%
Observed antifungal activity O (%) (Penicillium italicum [5]; [7]): 27%
Observed antifungal activity O (%) (Penicillium italicum [5]; [8]): 40%
Observed antifungal activity O (%) (Penicillium italicum [5]; day 4, 500 ppm natamycin, 1000 ppm bixafen or both): 37%
Observed antifungal activity O (%) (Penicillium italicum [5]; [9]): 47%
Observed antifungal activity O (%) (Penicillium italicum [5]; [10]): 28%
Observed antifungal activity O (%) (Penicillium italicum [5]; [11]): 26%
Observed antifungal activity O (%) (Penicillium italicum [5]; [17]): 22%
Observed antifungal activity O (%) (Penicillium italicum [5]; [12]): 32%
Observed antifungal activity O (%) (Penicillium italicum [5]; [13]): 10%
Observed antifungal activity O (%) (Penicillium italicum [5]; [14]): 10%
Observed antifungal activity O (%) (Penicillium italicum [5]; day 7, 500 ppm natamycin, 1000 ppm bixafen or both): 6%
Observed antifungal activity O (%) (Penicillium italicum [5]; day 9, 250 ppm natamycin, 250 ppm bixafen or both): 0%
Observed antifungal activity O (%) (Penicillium italicum [5]; [15]): 0%
Observed antifungal activity O (%) (Penicillium italicum [5]; [18]): 2%
Observed antifungal activity O (%) (Penicillium italicum [5]; [16]): 7%
Observed antifungal activity O (%) (Penicillium italicum [5]; day 11, 250 ppm natamycin, 500 ppm bixafen or both): 0%
Observed antifungal activity O (%) (Penicillium italicum [5]; [19]): 9%
Observed antifungal activity O (%) (Penicillium italicum [5]; day 13, 250 ppm natamycin, 500 ppm bixafen or both): 0%
Observed antifungal activity O (%) (Penicillium italicum [5]; [20]): 0%
Observed antifungal activity O (%) (Penicillium italicum [5]; [21]): 3%
Observed antifungal activity O (%) (Penicillium italicum [5]; day 15, 250 ppm natamycin, 500 ppm bixafen or both): 0%
Observed antifungal activity O (%) (Penicillium italicum [5]; day 15, 500 ppm natamycin, 1000 ppm bixafen or both): 0%
Observed antifungal activity O (%) (Penicillium italicum [5]; day 15, 500 ppm natamycin, 2000 ppm bixafen or both): 0%
